Values quoted from earlier work, collected in patent US20240315993A1, “ANTIPARASITIC COMPOUNDS” (Intervet Inc., priority 2021, published 2024).

Experiments:
[1] = test system: Cabbage Looper (Trichoplusia ni); conditions: 128-well diet tray, average of eight wells, cited from earlier work; for Test B: Bioassay on CL, percent mortality rating: Cabbage Looper second instar larvae, 50 μg/cm^2, five to seven days; for Test B: percent mortality of Cabbage Looper (CL) larvae, rating: 50 μg/cm^2 on artificial diet, second instar larvae, 5-7 days
[2] = test system: Yellow Fever Mosquito (Aedes aegypti); conditions: Aedes aegypti larvae about 1 day old, 96-well plate, scored after 3 days; cited from earlier work
[3] = test system: Beet Armyworm (Spodoptera exigua); conditions: 128-well diet tray, average of eight wells, cited from earlier work; for Test A: Bioassay on BAW, percent mortality rating: Beet Armyworm second instar larvae, 50 μg/cm^2, five to seven days; for Test A: percent mortality of Beet Armyworm (BAW) larvae, rating: 50 μg/cm^2 on artificial diet, second instar larvae, 5-7 days

Compound | Test B: Bioassay on CL, percent mortality rating [1] | Test C: Bioassay on Yellow Fever Mosquito, mortality rating [2] | Test A: Bioassay on BAW, percent mortality rating [3] | Test B: percent mortality of Cabbage Looper (CL) larvae, rating [1] | Test A: percent mortality of Beet Armyworm (BAW) larvae, rating [3]
O=C(Nc1ccc(-n2ccnc2)cc1)c1cc(NC(=O)[C@H]2[C@H](c3cc(Cl)cc(Cl)c3)C2(Cl)Cl)ccc1Cl [c1] | A (50-100) | A (80-100) | A (50-100) |  | 
O=C(Nc1ccc(-n2cncn2)cc1)c1cc(NC(=O)[C@H]2[C@H](c3cc(Cl)cc(Cl)c3)C2(Cl)Cl)ccc1Cl [c2] | A (50-100) | A (80-100) | A (50-100) |  | 
Cc1cc(C(F)(C(F)(F)F)C(F)(F)F)cc(C)c1NC(=O)c1cc(NC(=O)[C@H]2[C@H](c3cc(Cl)cc(Cl)c3)C2(Cl)Cl)ccc1Cl [c3] | A (50-100) | D (No activity noticed in this bioassay) | A (50-100) |  | 
O=C(Nc1ccc(NC(=O)C2CC2)cc1)c1cc(NC(=O)[C@H]2[C@H](c3cc(Cl)cc(Cl)c3)C2(Cl)Cl)ccc1Cl [c4] | A (50-100) | A (80-100) | A (50-100) |  | 
O=C(CC1CC1)Nc1ccc(NC(=O)c2cc(NC(=O)[C@H]3[C@H](c4cc(Cl)cc(Cl)c4)C3(Cl)Cl)ccc2Cl)cc1 [c5] | A (50-100) | A (80-100) | A (50-100) |  | 
COCC1(C(=O)Nc2ccc(NC(=O)c3cc(NC(=O)[C@H]4[C@H](c5cc(Cl)cc(Cl)c5)C4(Cl)Cl)ccc3Cl)cc2)CC1 [c6] | A (50-100) | A (80-100) | A (50-100) |  | 
O=C(Nc1ccc(NC(=O)C2CC2(F)F)cc1)c1cc(NC(=O)[C@H]2[C@H](c3cc(Cl)cc(Cl)c3)C2(Cl)Cl)ccc1Cl (stereo partly shown) [c7] | A (50-100) | A (80-100) | A (50-100) |  | 
CC(C)(C)CC(=O)Nc1ccc(NC(=O)c2cc(NC(=O)[C@H]3[C@H](c4cc(Cl)cc(Cl)c4)C3(Cl)Cl)ccc2Cl)cc1 [c8] | A (50-100) | D (No activity noticed in this bioassay) | A (50-100) |  | 
O=C(Nc1ccc(-n2cnnc2)cc1)c1cc(NC(=O)[C@H]2[C@H](c3cc(Cl)cc(Cl)c3)C2(Cl)Cl)ccc1Cl [c9] | A (50-100) | A (80-100) | A (50-100) |  | 
CC(=O)Nc1ccc(NC(=O)c2cc(NC(=O)[C@H]3[C@H](c4cc(Cl)cc(Cl)c4)C3(Cl)Cl)ccc2Cl)c(C)c1 [c10] | A (50-100) | A (80-100) | A (50-100) |  | 
O=C(Nc1ccc2ncsc2c1)c1cc(NC(=O)C2C(c3cc(Cl)cc(Cl)c3)C2(Cl)Cl)ccc1Cl (stereo not shown) [c11] | A (50-100) | A (80-100) | A (50-100) |  | 
O=C(Nc1ccc2[nH]ccc2c1)c1cc(NC(=O)C2C(c3cc(Cl)cc(Cl)c3)C2(Cl)Cl)ccc1Cl (stereo not shown) [c12] | A (50-100) | A (80-100) | A (50-100) |  | 
O=C(Nc1ccc2cccnc2c1)c1cc(NC(=O)C2C(c3cc(Cl)cc(Cl)c3)C2(Cl)Cl)ccc1Cl (stereo not shown) [c13] | A (50-100) | B (More than 0 - Less than 80) | A (50-100) |  | 
O=C(Nc1cnc2cc[nH]c2c1)c1cc(NC(=O)C2C(c3cc(Cl)cc(Cl)c3)C2(Cl)Cl)ccc1Cl (stereo not shown) [c14] | A (50-100) | B (More than 0 - Less than 80) | A (50-100) |  | 
O=C(Nc1ccc2nc(Cl)[nH]c2c1)c1cc(NC(=O)C2C(c3cc(Cl)cc(Cl)c3)C2(Cl)Cl)ccc1Cl (stereo not shown) [c15] | A (50-100) | B (More than 0 - Less than 80) | A (50-100) |  | 
COC(=O)Nc1ccc(NC(=O)c2cc(NC(=O)[C@H]3[C@H](c4cc(Cl)cc(Cl)c4)C3(Cl)Cl)ccc2Cl)cc1 [c16] | A (50-100) | B (More than 0 - Less than 80) | A (50-100) |  | 
O=C(Nc1cc(C(F)(F)F)[nH]n1)c1cc(NC(=O)[C@H]2[C@H](c3cc(Cl)cc(Cl)c3)C2(Cl)Cl)ccc1Cl [c17] | A (50-100) | D (No activity noticed in this bioassay) | A (50-100) |  | 

Compound | Test B: Bioassay on CL, percent mortality rating [1] | Test C: Bioassay on Yellow Fever Mosquito, mortality rating [2] | Test A: Bioassay on BAW, percent mortality rating [3] | Test B: percent mortality of Cabbage Looper (CL) larvae, rating [1] | Test A: percent mortality of Beet Armyworm (BAW) larvae, rating [3]
O=C(Nc1ccc(-n2cccn2)cc1)c1cc(NC(=O)C2C(c3cc(Cl)cc(Cl)c3)C2(Cl)Cl)ccc1Cl (stereo not shown) [c18] | A (50-100) | A (80-100) | A (50-100) |  | 
O=C(Nc1nc2ccccc2s1)c1cc(NC(=O)C2C(c3cc(Cl)cc(Cl)c3)C2(Cl)Cl)ccc1Cl (stereo not shown) [c19] | A (50-100) | B (More than 0 - Less than 80) | A (50-100) |  | 
COc1c(Cl)cc(C2C(C(=O)Nc3ccc(Cl)c(C(=O)Nc4ccc(NC(C)=O)cc4)c3)C2(Cl)Cl)cc1Cl (stereo not shown) [c20] | A (50-100) | D (No activity noticed in this bioassay) | A (50-100) |  | 
CNc1ccc(NC(=O)c2cc(NC(=O)C3C(c4cc(Cl)c(OC)c(Cl)c4)C3(Cl)Cl)ccc2Cl)cc1 (stereo not shown) [c21] | A (50-100) | D (No activity noticed in this bioassay) | A (50-100) |  | 
O=C(Nc1nnn[nH]1)c1cc(NC(=O)[C@H]2[C@H](c3cc(Cl)cc(Cl)c3)C2(Cl)Cl)ccc1Cl [c22] | A (50-100) | B (More than 0 - Less than 80) | A (50-100) |  | 
O=C(Nc1ccc(-c2ncco2)cc1)c1cc(NC(=O)C2C(c3cc(Cl)cc(Cl)c3)C2(Cl)Cl)ccc1Cl (stereo not shown) [c23] | A (50-100) | D (No activity noticed in this bioassay) | A (50-100) |  | 
Cc1ccc(-c2csc(NC(=O)c3cc(NC(=O)[C@H]4[C@H](c5cc(Cl)cc(Cl)c5)C4(Cl)Cl)ccc3Cl)n2)cc1 [c24] | A (50-100) | D (No activity noticed in this bioassay) | A (50-100) |  | 
O=C(Nc1c[nH]c(=O)[nH]c1=O)c1cc(NC(=O)[C@H]2[C@H](c3cc(Cl)cc(Cl)c3)C2(Cl)Cl)ccc1Cl [c25] | A (50-100) | B (More than 0 - Less than 80) | A (50-100) |  | 
O=C(Nc1nc2ccccc2o1)c1cc(NC(=O)C2C(c3cc(Cl)cc(Cl)c3)C2(Cl)Cl)ccc1Cl (stereo not shown) [c26] | A (50-100) | A (80-100) | A (50-100) |  | 
O=C(Nc1ccc2ncoc2c1)c1cc(NC(=O)C2C(c3cc(Cl)cc(Cl)c3)C2(Cl)Cl)ccc1Cl (stereo not shown) [c27] | A (50-100) | A (80-100) | A (50-100) |  | 
O=C(Nc1ccc2sccc2c1)c1cc(NC(=O)C2C(c3cc(Cl)cc(Cl)c3)C2(Cl)Cl)ccc1Cl (stereo not shown) [c28] | A (50-100) | A (80-100) | A (50-100) |  | 
Nc1cccc(NC(=O)c2cc(NC(=O)C3C(c4cc(Cl)cc(Cl)c4)C3(Cl)Cl)ccc2Cl)c1 (stereo not shown) [c29] | A (50-100) | A (80-100) | A (50-100) |  | 
CNc1cccc(NC(=O)c2cc(NC(=O)C3C(c4cc(Cl)cc(Cl)c4)C3(Cl)Cl)ccc2Cl)c1 (stereo not shown) [c30] | A (50-100) | A (80-100) | A (50-100) |  | 
Cc1ccc(NC(=O)c2cc(NC(=O)C3C(c4cc(Cl)cc(Cl)c4)C3(Cl)Cl)ccc2Cl)cc1N (stereo not shown) [c31] | A (50-100) | B (More than 0 - Less than 80) | A (50-100) |  | 
Cc1cc2cc(NC(=O)c3cc(NC(=O)C4C(c5cc(Cl)cc(Cl)c5)C4(Cl)Cl)ccc3Cl)ccc2[nH]1 (stereo not shown) [c32] | A (50-100) | A (80-100) | A (50-100) |  | 
CC(=O)OCCNc1ccc(NC(=O)c2cc(NC(=O)C3C(c4ccc(F)c(C(F)(F)F)c4)C3(Cl)Cl)ccc2Cl)c(C)c1 (stereo not shown) [c119] |  |  |  | A (50-100) | A (50-100)
Cc1cc(NCCO)ccc1NC(=O)c1cc(NC(=O)C2C(c3ccc(F)c(C(F)(F)F)c3)C2(Cl)Cl)ccc1Cl (stereo not shown) [c120] |  |  |  | A (50-100) | A (50-100)
